Data as given in patent US5236955A, “Anti-fungal agent” (Washington University, priority 1992, dated 1993).

What was measured:
[1] = system: C. neoformans; experiment: Growth of C. neoformans cultures (absorbance at 600 nm); assay type: cell-based, Cryptococcus neoformans; settings: single 300 μM dose, exponential phase, 30° C., SAB, up to 24 h
Experimental: (§1) Panel A, survey of the effects of several oxatetradecanoic acids on the growth of C. neoformans. A culture of C. neoformans was grown at 30° C. in SAB media to midlog phase (A600 ~0.5). A single dose of fatty acid was then added to subcultures (final concentration=300 μM). EtOH(0.1%) was used as a negative control. Amphotericin B (AmB) was added (final concentraton=55 μM) as a positive control. Aliquots were withdrawn from the subcultures 0, 0.5, 2, 4, 7, 21, and 24 h after these additions and then absorbance at 600 nm was measured. All assays were done in duplicate or triplicate. A representative test is shown. Panel B, survey of the effects of oxatetradecanoic acids, dioxatetradecanoic acids and oxatridecanoic acids on the viability of C. neoformans. Fatty acid analog was added to the cultures as in Panel A. Aliquots were withdrawn 0.5, 2, 4, 7 or 8, and 24 h later and plated on SAB-agar at various dilutions to determine the number of viable organisms/ml culture. All assays were done in duplicate. Data from a representative test are expressed as the ratio of viable cells in treated cultures relative to a control culture that received 0.1% EtOH. A positive control culture received a single dose of amphotericin B (55 μM); Panel C, dose-dependent reduction in the viability of C. neoformans after addition of 4-oxatetradecanoic acid (O4) to cultures during log-phase growth at 30° C. in SAB. A single dose of the analog was given at T=0 h in the amount indicated and aliquots of the culture were withdrawn at various times to determine the number of viable cells. All assays were done in triplicate. A representative test is shown.
Saccharomyces cerevisiae strain YM2061 (MATa ura3-52 his3Δ200 ade2-101 lys2-801 met LEU2::pRY181 can1; Flick and Johnston, Mol. Cell. Biol. 10, 4757-4769 (1990), Candida albicans strain B311 (obtained from the American Type Tissue Culture, Rockville, Md.), or Cryptococcus neoformans strain L210425 (a clinical isolate that is part of the permanent culture collection of the Mycology Laboratory, Barnes Hospital, St. Louis, Mo.) were grown overnight at 30 C. The S. cerevisiae strain was incubated in YPD medium (1% bacto-yeast extract, Gibco, Long Island, N.Y.), 2% bacto-peptone (Gibco), 2% dextrose). The C. albicans and C. neoformans strains were grown in Sabouraud's media (SAB; 2% (w/v) dextrose, 1% bacto-peptone). The following morning the cultures were diluted into fresh medium to the desired density at 600 nm (early log phase), and subsequently incubated in a rotary shaker at 30° C. until an A600 =0.5 (mid log phase) was achieved. The culture was then divided into 10 ml aliquots. A single 10 μl aliquot of a stock solution of fatty acid analog (prepared in various concentrations using absolute ethanol) was added to the culture so that the final concentration of the compound was 100-500 μM (T=0). Ten microliters of ethanol alone was added to one 10 ml culture which served as the negative control. […] Cell viability was determined at each of these time points by (i) serially diluting the aliquot in 0.15M NaCl and counting cell number in a hemocytometer and (ii) plating 2-3 of the dilutions in triplicate onto plates of SAB/agar (C. albicans and C. neoformans) or YPD/agar (S. cerevisiae). […] The data were expressed as the ratio of viable cells/ml in the fatty acid analog treated subculture to the number of viable cells/ml in the negative (ethanol) control culture. […]

[2] = system: C. neoformans; experiment: Viability of C. neoformans (viable cells relative to EtOH control culture); assay type: cell-based, Cryptococcus neoformans; settings: for log reduction at 300 µM: Cryptococcus neoformans
Experimental: as §1
(§2) Saccharomyces cerevisiae strain YM2061 (MATa ura3-52 his3Δ200 ade2-101 lys2-801 met LEU2::pRY181 can1; Flick and Johnston, Mol. Cell. Biol. 10, 4757-4769 (1990), Candida albicans strain B311 (obtained from the American Type Tissue Culture, Rockville, Md.), or Cryptococcus neoformans strain L210425 (a clinical isolate that is part of the permanent culture collection of the Mycology Laboratory, Barnes Hospital, St. Louis, Mo.) were grown overnight at 30 C. The S. cerevisiae strain was incubated in YPD medium (1% bacto-yeast extract, Gibco, Long Island, N.Y.), 2% bacto-peptone (Gibco), 2% dextrose). The C. albicans and C. neoformans strains were grown in Sabouraud's media (SAB; 2% (w/v) dextrose, 1% bacto-peptone). The following morning the cultures were diluted into fresh medium to the desired density at 600 nm (early log phase), and subsequently incubated in a rotary shaker at 30° C. until an A600 =0.5 (mid log phase) was achieved. The culture was then divided into 10 ml aliquots. A single 10 μl aliquot of a stock solution of fatty acid analog (prepared in various concentrations using absolute ethanol) was added to the culture so that the final concentration of the compound was 100-500 μM (T=0). Ten microliters of ethanol alone was added to one 10 ml culture which served as the negative control. Amphotericin B (AmB; in the form of Fungizone, Squibb) was added (final concentration=55 μM) to another culture which served as the positive control. At T=0 and 0.5-24 h after addition of fatty acid analog to the subcultures, an aliquot was removed for determining the density of the subculture at 600 nm. Cell viability was determined at each of these time points by (i) serially diluting the aliquot in 0.15M NaCl and counting cell number in a hemocytometer and (ii) plating 2-3 of the dilutions in triplicate onto plates of SAB/agar (C. albicans and C. neoformans) or YPD/agar (S. cerevisiae). These plates were subsequently incubated at 30° C. for 24-48 hr to allow for the growth of colonies. The data were expressed as the ratio of viable cells/ml in the fatty acid analog treated subculture to the number of viable cells/ml in the negative (ethanol) control culture.

[3] = system: C. neoformans; experiment: Metabolic stability of O4 and resistance in C. neoformans cultures; assay type: cell-based, Cryptococcus neoformans
Experimental: Cultreus of C. neoformans were exposed to a single dose of 300 μM O4 or 0.1% EtOH during mid-log phase growth (O4A, EtOH1) as in FIG. 1. Two hours later, an aliquot was removed from the culture and subjected to centrifugation at 1500×g for 10 min. The "used" O4-containing media was added to EtOH-treated cells (O4B). "Fresh" O4 was added to cells (final concentration=300 μM) that had already been exposed to O4 for 2 h (O4C). at 24 H, O4-treated cells were again pelleted and resuspended in "fresh" O4-containing media (final concentration=300 μM (O4E)). The "used" O4 media was added to a fresh culture of untreated cells (O4D) and their growth was compared to an identical population of cells treated with EtOH alone (EtOH2).
A series of tests were conducted to assess the metabolic stability of the compound (FIG. 2). Media was harvested from cells treated with a single dose of 300 μM O4 for 2 hr or for 24 hr and added to a exponentially growing culture of C. neoformans that had never been exposed to fatty acid analog. 100 fold and 10 fold decreases (respectively) in viable cell number were observed over the ensuing 2 hr (O4B and O4D in FIG. 2). […] Exponentially growing cultures were also exposed to a single 300 μM dose of O4, a single dose of 0.1% EtOH, or to no additions. Aliquots of each of the cultures were removed 4 and 24 hr later and plated on Sabouraud/agar. […]

[4] = system: C. albicans; experiment: Viability of C. albicans; assay type: cell-based; settings: Candida albicans
Experimental: Oxatetradecanoic acids were added (final concentraton=25-500 μM) as a single dose to log phase cultures of C. alibcans grown in SAB at 30° C. (Panels A and B) and to log phase cultures of S. cerevisiae grown in YPD at 30° C. (Panels C and D). The results were compared to the number of viable organisms present in cultures treated with 0.1% EtOH alone. […] A single does of alphotericin B (final concentration=55 μM) was added to parallel cultures which served as positive controls. Assays were done in duplicate. Representative tests are shown.
as §2

CCCCCCCCCCOCCC(=O)O [O4, 4-oxatetradecanoic acid]
effect on growth of C. neoformans, as determined by optical density [1]: growth arrest equivalent to that observed with 55 μM amphotericin B
time needed to produce the decrease in viable cells ([2]; 300 μM single dose): ≤ 1 h
fungicidal / fungistatic effect on C. neoformans ([2]; 300 μM single dose, screening assay): fungicidal
log reduction at 300 µM ([2]; 300 μM single dose, relative to 0.1% EtOH control, read-out: decrease in viable cells (converted)): 4
log reduction at 300 µM ([2]; 300 μM, between 1 and 7 h after treatment, read-out: further reductions in viable cell number): < 1
cell number after single dose ([2]; between 8 and 24 hr after single dose): gradual increase in cell number
dose dependence of fungicidal activity ([2]; four doses, 100-300 μM): progressive reduction of viable cell number
log reduction at 300 µM ([3]; Cryptococcus neoformans, cells already exposed for 2 hr or 24 hr (O4C, O4E), read-out: further reduction in viable cell number on fresh 300 μM media (converted)): 0.699
resistance or tolerance of cells after exposure ([3]; colonies from cultures exposed 4 and 24 hr, re-exposed to 300 μM): do not become resistant or tolerant
log reduction at 300 µM ([4]; 300 μM, 2 hr after addition, read-out: reductions in the number of viable C. albicans): < 0.699
log reduction at 500 µM ([4]; 500 μM, read-out: reduction in the number of viable organisms (C. albicans)): 1 to 2
